Laboratory results taken from patent US20240309003A1, “HETEROCYCLIC COMPOUNDS AS TRIGGERING RECEPTOR EXPRESSED ON MYELOID CELLS 2 AGONISTS AND METHODS OF USE” (Vigil Neuroscience, Inc., priority 2021, published 2024).

Molecular target: T1, human TREM2 (Homo sapiens, UniProt Q9NZC2)
T1 construct: expressed in transfected cells; host or cells: HEK293T
Test: TREM2 agonist potency by cellular phosphorylation of Syk (AlphaLisa) in HEK293T-hTREM2 cells
Type: cell-based
Outline: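 Agonist EC50 from a variable-slope four-parameter fit of % activation, based on AlphaLisa phospho-Syk levels in lysates. Cells: HEK293T-hTREM2 (with DAP12), treated 45 min at room temperature with compound in assay buffer.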

[1] = HEK293 cells expressing human TREM2 and DAP12, Table D
[2] = HEK293 cells expressing human TREM2 and DAP12, Table D-2

T1 sequence (Q9NZC2 19-230): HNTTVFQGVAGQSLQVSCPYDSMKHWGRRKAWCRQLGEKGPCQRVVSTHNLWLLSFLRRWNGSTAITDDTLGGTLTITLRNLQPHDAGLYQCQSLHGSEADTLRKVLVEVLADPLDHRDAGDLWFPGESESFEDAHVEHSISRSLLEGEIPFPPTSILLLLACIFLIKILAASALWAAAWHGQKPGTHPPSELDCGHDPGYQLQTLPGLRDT
T1 sequence (O43914 22-113 partner): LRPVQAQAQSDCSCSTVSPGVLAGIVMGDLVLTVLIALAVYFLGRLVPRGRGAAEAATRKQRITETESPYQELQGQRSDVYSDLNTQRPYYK

EC50 [1] [nM]	EC50 [2] [nM]	Structure (SMILES)
500 to 3000	–	Cc1cc2nc([C@H]3CCO[C@@H](c4cnn(C5CC5)c4)C3)nc(-c3ccc(Cl)cc3F)c2nc1C [Example 222, 4-(4-chloro-2-fluorophenyl)-2-((2R,4S)-2-(1-cyclopropyl-1H-pyrazol-4-yl)tetrahydro-2H-pyran-4-yl)-6,7-dimethylpyrido[3,2-d]pyrimidine]
–	< 50	Cc1nc2nc([C@H]3CCO[C@@H](c4cnn(C5CC5)c4)C3)nc(-c3ccc(Cl)cc3F)c2nc1OCCF [Example I-1283, 4-(4-chloro-2-fluoro-phenyl)-2-[(2R,4S)-2-(1-cyclopropylpyrazol-4-yl)tetrahydropyran-4-yl]-6-(2-fluoroethoxy)-7-methyl-pteridine]
500 to 3000	–	Cc1cnc2c(-c3ccc(F)cc3F)nc(N3C[C@@H](c4cnn(C5CC5)c4)O[C@@H](C)C3)cc2n1 [Example 208, (2R,6S)-2-(1-cyclopropyl-1H-pyrazol-4-yl)-4-(5-(2,4-difluorophenyl)-2-methylpyrido[3,4-b]pyrazin-7-yl)-6-methylmorpholine]
< 50	–	Cc1nc2nc([C@H]3CCO[C@@H](c4cnn(C5CC5)c4)C3)nc(-c3ccc(C(F)(F)F)cc3)c2nc1C [Example 139]
500 to 3000	–	Cc1nc2nc([C@H]3CCO[C@@H](c4ccc(=O)n(C)c4)C3)nc(-c3ccc(F)cc3F)c2nc1C [Example 201]
50 to 500	–	Cc1nc2nc([C@@H]3CCO[C@H](c4cnn(C5CC5)c4)C3)nc(-c3ccc(C(F)(F)F)cc3)c2nc1C [Example 138, 2-((2S,4R)-2-(1-cyclopropyl-1H-pyrazol-4-yl)tetrahydro-2H-pyran-4-yl)-6,7-dimethyl-4-(4-(trifluoromethyl)phenyl)pteridine]
–	50 to 500	Cc1nc2cc([C@H]3CCO[C@@H](c4cnn(C5CC5)c4)C3)nc(-c3ccc(C(F)(F)F)cc3F)c2nc1C(F)(F)F [Example I-1562]
–	< 50	Cc1cc([C@@H]2CN(c3nc(-c4ccc(Cl)cc4F)c4nc(C)c(C)nc4n3)CCO2)on1 (stereo in doubt) [Example I-1241, 4-[4-(4-chloro-2-fluoro-phenyl)-6,7-dimethyl-pteridin-2-yl]-2-(3-methylisoxazol-5-yl)morpholine]
–	500 to 3000	Cc1nc2nc([C@@H]3CCO[C@@H](c4cnc(C5CC5)o4)C3)nc(-c3ccc(F)cc3F)c2nc1C (single isomer, unassigned) [Example I-1696]
< 50	–	Cc1cc2c(-c3ccc(Cl)cc3F)cc([C@H]3CCO[C@@H](c4cnn(C5CC5)c4)C3)nc2nc1C [Example 233, 5-(4-chloro-2-fluoro-phenyl)-7-[(2R,4S)-2-(1-cyclopropylpyrazol-4-yl)tetrahydropyran-4-yl]-2,3-dimethyl-1,8-naphthyridine]
< 50	–	Cc1nc2nc(N3CCO[C@@H](c4cc[nH]c(=O)c4)C3)nc(-c3ccc(C(F)(F)F)nc3)c2nc1C [Example 195, (S)-4-(4-(6,7-dimethyl-4-(6-(trifluoromethyl)pyridin-3-yl)pteridin-2-yl)morpholin-2-yl)pyridin-2(1H)-one]
500 to 3000	–	Cc1nc2cc([C@@H]3CCO[C@H](c4cnn(C5CC5)c4)C3)cc(-c3ccc(Cl)cc3F)c2nc1C [Example 227, 5-(4-chloro-2-fluorophenyl)-7-((2S,4R)-2-(1-cyclopropyl-1H-pyrazol-4-yl)tetrahydro-2H-pyran-4-yl)-2,3-dimethylquinoxaline]
–	< 50	COCn1cc([C@H]2CN(c3nc(-c4ccc(F)cc4F)c4nc(C)c(C)nc4n3)C[C@@H](C)O2)cn1 [Example I-1441, (2S,6R)-4-[4-(2,4-difluorophenyl)-6,7-dimethyl-pteridin-2-yl]-2-[1-(methoxymethyl)pyrazol-4-yl]-6-methyl-morpholine]
50 to 500	–	Cc1cnc2c(-c3ccc(F)cc3F)nc(N3C[C@@H](C)O[C@@H](c4cnn(C5CC5)c4)C3)cc2n1 [Example 209, (2S,6R)-2-(1-cyclopropyl-1H-pyrazol-4-yl)-4-(5-(2,4-difluorophenyl)-2-methylpyrido[3,4-b]pyrazin-7-yl)-6-methylmorpholine]
500 to 3000	–	COc1cccc([C@@H]2C[C@H](c3nc(C45CC(C(F)(F)F)(C4)C5)c4nc(C)c(C)nc4n3)CCO2)n1 [Example 145, 2-[ (2S,4R)-2-(6-methoxy-2-pyridyl)tetrahydropyran-4-yl] - 6,7-dimethyl-4-[3-(trifluoromethyl)-1-bicyclo[1.1.1]pentanyl]pteridine]
–	50 to 500	Cc1cc([C@H]2CN(c3nc(-c4ccc(Cl)cc4F)c4nc(C)c(C)nc4n3)CCO2)no1 [Example I-1510, (2R)-4-[4-(4-chloro-2-fluoro-phenyl)-6,7-dimethyl-pteridin-2-yl]-2-(5-methylisoxazol-3-yl)morpholine]
–	< 50	Cc1nc2nc(N3C[C@@H](C)O[C@@H](c4cnn(C(F)F)c4)C3)nc(-c3ccc(F)cc3F)c2nc1C [Example I-1472, (2S,6R)-2-[1-(difluoromethyl)pyrazol-4-yl]-4-[4-(2,4-difluorophenyl)-6,7-dimethyl-pteridin-2-yl]-6-methyl-morpholine]
< 50	–	[2H]C1([2H])C[C@H](c2nc(-c3ccc(Cl)cc3F)c3nc(C)c(C)nc3n2)C[C@]([2H])(c2cnn(C3CC3)c2)O1 [Example 192, 4-(4-chloro-2-fluorophenyl)-2-((2R,4S)-2-(1-cyclopropyl-1H-pyrazol-4-yl)tetrahydro-2H-pyran-4-yl-2,6,6-d3)-6,7-dimethylpteridine]
50 to 500	–	Cc1nc2nc([C@H]3CCO[C@@H](c4cnn(C5CC5)n4)C3)nc(-c3ccc(F)cc3F)c2nc1C [Example 155, 2-((2R,4S)-2-(2-cyclopropyl-2H-1,2,3-triazol-4-yl)tetrahydro-2H-pyran-4-yl)-4-(2,4-difluorophenyl)-6,7-dimethylpteridine]
50 to 500	–	Cc1nc2nc([C@@H]3C[C@@H](C)O[C@@H](c4cnn(C5CC5)c4)C3)nc(-c3cc(F)c(F)cc3F)c2nc1C [Example 158, 2-((2R,4R,6R)-2-(1-cyclopropyl-1H-pyrazol-4-yl)-6-methyltetrahydro-2H-pyran-4-yl)-6,7-dimethyl-4-(2,4,5-trifluorophenyl)pteridine]
< 50	–	Cc1nc2nc([C@@H]3CCO[C@H](c4cnn(C5CC(F)C5)c4)C3)nc(C34CC(C(F)(F)F)(C3)C4)c2nc1C (stereo in doubt) [Example 134, 2-((2S,4R)-2-(1-(3-fluorocyclobutyl)-1H-pyrazol-4-yl)tetrahydro-2H-pyran-4-yl)-6,7-dimethyl-4-(3-(trifluoromethyl)bicyclo[1.1.1]pentan-1-yl)pteridine]
500 to 3000	–	Cc1nc2nc([C@@H]3CCO[C@H](c4cccc(=O)n4C)C3)nc(-c3ccc(F)cc3F)c2nc1C [Example 202]
–	< 50	Cc1nc2nc(N3C[C@@H](C(F)F)O[C@@H](c4cnn(C5CC5)c4)C3)nc(-c3ccc(C(F)(F)F)cc3F)c2nc1C (stereo in doubt) [Example I-1598, (2S,6S)-2-(1-cyclopropylpyrazol-4-yl)-6-(difluoromethyl)-4-[4-[2-fluoro-4-(trifluoromethyl)phenyl]-6,7-dimethyl-pteridin-2-yl]morpholine]
< 50	–	Cc1ccc2c(C34CC(C(F)(F)F)(C3)C4)nc([C@H]3CCO[C@@H](c4cnn(C5CC5)c4)C3)nc2n1 [Example 221, 2-((2R,4S)-2-(1-cyclopropyl-1H-pyrazol-4-yl)tetrahydro-2H-pyran-4-yl)-7-methyl-4-(3-(trifluoromethyl)bicyclo[1.1.1]pentan-1-yl)pyrido[2,3-d]pyrimidine]
